The supplement of paper PMC10627819

Assays:
[1] = tested on: S. aureus Newman; experiment: fitness (endpoint OD595 vs no drug) (fraction); higher = more growth; settings: main component drawn
In short: (§1)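 Cultures at OD595 0.01 were dispensed into 384-well plates in TSB, LB Lennox or CY and incubated at 37 °C. Every 30 min for 14 h, OD595 was read and corrected by the first reading. Fitness is the optical density at entry into stationary phase relative to the robust mean of no-drug control wells, capped at 1.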

[2] = tested on: B. subtilis 168; experiment: Bliss interaction score (quartile over a dose matrix) (fitness difference); higher = more antagonism (negative = synergy)
In short: (§2)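 The Bliss score takes observed fitness and subtracts the expected fitness, calculated as a product of single-drug fitness values. Those single-drug values were inferred from the combination data. Fitness is OD595 at entry into stationary phase divided by the plate's robust no-drug mean, capped at 1, and the score is summarised by quartiles across technical, biological and donor/recipient replicates.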

[3] = tested on: S. aureus DSM 20231; experiment: as above
In short: as §2

[4] = tested on: S. pneumoniae D39V; experiment: as above
In short: as §2

[5] = tested on: S. aureus DSM 20231; experiment: fitness (endpoint OD595 vs no drug) (fraction); higher = more growth
In short: as §1

[6] = first compound 0.75 µg/mL, partner 0.5 µg/mL
[7] = first compound 0.75 µg/mL, partner 1 µg/mL
[8] = first compound 1.5 µg/mL, partner 0.5 µg/mL
[9] = first compound 3 µg/mL, partner 0.5 µg/mL
[10] = first compound 3 µg/mL, partner 1 µg/mL
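Wherever Bliss interaction score (quartile over a dose matrix) is given: first quartile when negative (synergy) and third quartile when positive (antagonism).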

In the case of `O=C(N[C@H](CO)[C@H](O)c1ccc([N+](=O)[O-])cc1)C(Cl)Cl` [Chloramphenicol] + CC(C1CCC(C(O1)OC2C(CC(C(C2O)OC3C(C(C(CO3)(C)O)NC)O)N)N)N)NC [Gentamicin], the fitness ([1]; first compound 0.75 µg/mL, partner 0.375 µg/mL) is reported as 0.778, the fitness [1, 6] is reported as 0.868 and the fitness ([1]; first compound 0.75 µg/mL, partner 0.75 µg/mL) is reported as 0.778. The fitness [1, 7] was 0.974, the fitness ([1]; first compound 0.75 µg/mL, partner 1.5 µg/mL) was 0.765 and the fitness ([1]; first compound 0.75 µg/mL, partner 2 µg/mL) was ≥ 1. It also gave a fitness ([1]; first compound 1.5 µg/mL, partner 0.375 µg/mL) of 0.507, a fitness [1, 8] of 0.775 and a fitness ([1]; first compound 1.5 µg/mL, partner 0.75 µg/mL) of 0.543. For the same compound, the fitness ([1]; first compound 1.5 µg/mL, partner 1 µg/mL) was 0.893, the fitness ([1]; first compound 1.5 µg/mL, partner 1.5 µg/mL) was 0.561 and the fitness ([1]; first compound 1.5 µg/mL, partner 2 µg/mL) was 0.871. It also gave a fitness ([1]; first compound 3 µg/mL, partner 0.375 µg/mL) of 0.208, a fitness [1, 9] of 0.436 and a fitness ([1]; first compound 3 µg/mL, partner 0.75 µg/mL) of 0.223. The fitness [1, 10] was 0.487, the fitness ([1]; first compound 3 µg/mL, partner 1.5 µg/mL) was 0.231 and the fitness ([1]; first compound 3 µg/mL, partner 2 µg/mL) was 0.512. The Bliss interaction score ([2]; main component drawn) was 0.13, the Bliss interaction score ([3]; main component drawn) was 0.0877 and the Bliss interaction score ([4]; main component drawn) was -0.162.

In the case of `O=C(N[C@H](CO)[C@H](O)c1ccc([N+](=O)[O-])cc1)C(Cl)Cl` [Chloramphenicol] + COc1cc(Cc2cnc(N)nc2N)cc(OC)c1OC [Trimethoprim], the fitness ([5]; first compound 0.75 µg/mL, partner 0.125 µg/mL) is reported as 0.613, the fitness ([5]; first compound 0.75 µg/mL, partner 0.25 µg/mL) is reported as 0.648 and the fitness [5, 6] is reported as 0.48. The fitness [5, 7] was 0.0816, the fitness ([5]; first compound 1.5 µg/mL, partner 0.125 µg/mL) was 0.499 and the fitness ([5]; first compound 1.5 µg/mL, partner 0.25 µg/mL) was 0.492. The fitness [5, 8] was 0.405, the fitness ([5]; first compound 3 µg/mL, partner 0.125 µg/mL) was 0.0821 and the fitness ([5]; first compound 3 µg/mL, partner 0.25 µg/mL) was 0.0908. The fitness [5, 9] was 0.0866, the fitness [5, 10] was 0.0882 and the Bliss interaction score [2] was 0.0616. It also gave a Bliss interaction score [3] of 0.133 and a Bliss interaction score [4] of -0.081.
